Our source for the GI50 and TGI values is PubChem BioAssay (NCI).

Where “and” joins values, the source holds several entries; their conditions need not be identical. Identical values can stand only once.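 96-well plates; 48 h exposure; 5 concentrations. Endpoints by linear interpolation between flanking doses. Not reached: highest tested concentration assigned. At the GI50, growth is halved. TGI marks complete inhibition of growth.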

Experiment in all cases: NCI anticancer screen, dose series, 48 h
The test system of assay [1] is OVCAR-4 ovarian.
For assay [2], the system named is K-562 leukemia.
The test system of assay [3] is KM12 colon.
Assay [4] concerns SK-MEL-2 melanoma.
Assay [5] deals with SK-MEL-5 melanoma.
In assay [6] the test system is SW-620 colon.
The subject of assay [7] is MDA-MB-435.
Assay [8] relates to UACC-257 melanoma.

On to `O=C(Nc1ccc(/C=C/c2ccc(NC(=O)c3cc(S(=O)(=O)O)c4cccnc4c3O)cc2S(=O)(=O)O)c(S(=O)(=O)O)c1)c1cc(S(=O)(=O)O)c2cccnc2c1O`, for which the GI50 in assay [1] was more than 54.4 µM; in assay [2], 12 µM; in assay [3], 42.8 µM; in assay [4] it was more than 53.8 µM; in assay [5] it was 50.2 µM; in assay [6], 17.8 µM. Also, the GI50 in assay [7] is more than 56.7 µM; in assay [8], 25.8 µM. Further, the TGI in assay [1] is more than 75.2 µM; in assay [2] it was more than 75.2 µM; in assay [3], more than 67.7 µM; in assay [4] it was more than 69.7 µM; in assay [5], more than 64.3 µM; in assay [6] it was more than 83.8 µM. For the same compound, the TGI in assay [7] is more than 74.1 µM; in assay [8], more than 56.3 µM.

`O=C1c2ccccc2-c2c1c1ccccc1c(=O)n2CCCNCCCCNCCCN1C(=O)c2ccccc2C2C(=O)c3ccccc3C21` (stereo not drawn): the GI50 is 0.779 µM in assay [1]; 0.182 µM in assay [2]; 0.27 µM in assay [3]; 1.04 µM in assay [4]; 0.939 µM in assay [5]; 0.126 µM in assay [6]. Besides, the GI50 was 0.805 µM in assay [7] and 3.86 µM in assay [8]. The TGI turned out to be 10.3 µM in assay [1]; 0.727 µM in assay [2]; 1.41 µM in assay [3]; 3.82 µM in assay [4]; 3.93 µM in assay [5]; 1.21 µM in assay [6]. Also, the TGI came to 2.83 µM in assay [7] and 11.7 µM in assay [8].

For `COc1ccc(/C=C/C(=O)c2ccc(OC)c(OC)c2)cc1O`, the GI50 in assay [1] is 8.45 µM; in assay [2] it was 3.31 µM; in assay [3], 3.57 µM; in assay [4], 14.9 µM; in assay [5], 5.9 µM; in assay [6], 3.09 µM. Moreover, the values for the GI50 in assay [7] and in assay [8] were 5.22 µM and 13.8 µM, respectively. Also, the TGI in assay [1] was 20.8 µM; in assay [2], more than 100 µM; in assay [3] it was 13.3 µM; in assay [4] it was 32.9 µM; in assay [5] it was 18.8 µM; in assay [6], 12.8 µM. The TGI in assay [7] is 23.5 µM; in assay [8] it was 26.9 µM.

With `COc1cc([C@@H]2C[C@H]2c2cc(SC)n[nH]2)cc(OC)c1OC`, the GI50 in assay [1] is 26.2 µM; in assay [2] it was 21 µM; in assay [3], 15.2 µM; in assay [4], 25.6 µM; in assay [5], 14.7 µM; in assay [6], 26.9 µM. Moreover, the values for the GI50 in assay [7] and in assay [8] were 11.2 µM and 17.7 µM, respectively. The TGI was more than 100 µM in assay [1]; more than 100 µM in assay [2]; 32.8 µM in assay [3]; 67.2 µM in assay [4]; 29 µM in assay [5]; more than 100 µM in assay [6]. Further, the figures for the TGI in assay [7] and in assay [8] were 26.5 µM and 50.7 µM, respectively.

In the case of `CCCCCCCCC(=O)OCC(CS[As](C)C)OC(=O)CCCCCCCC` (stereo not drawn), the GI50 in assay [1] was 9.89 µM; in assay [2] it was 0.342 µM; in assay [3], 2.77 µM; in assay [4], 13.2 µM; in assay [5], 0.163 µM; in assay [6], 0.349 µM. The GI50 in assay [7] was 0.196 µM; in assay [8] it was 1.4 µM. In addition, the TGI in assay [1] amounted to 38.4 µM; in assay [2], 12.9 µM; in assay [3], 13.8 µM; in assay [4], 58.9 µM; in assay [5] it was 0.388 µM; in assay [6] it was 14.9 µM. The TGI in assay [7] was determined as 0.652 µM; in assay [8], 15.3 µM.

Turning to `Cc1c(O)c2c(c(O)c1Br)C(=O)C=CC2=O`, the GI50 in assay [1] is 1.03 µM; in assay [2], 0.0599 µM; in assay [3], 3.55 µM; in assay [4], 1.93 µM; in assay [6], 0.449 µM; in assay [8], 0.924 µM. The TGI is 2.23 µM in assay [1]; 0.66 µM and 0.334 µM in assay [2]; 3.14 µM and 13.3 µM in assay [3]; 4.45 µM in assay [4]; 0.974 µM and 1.78 µM in assay [5]; 0.364 µM and 2.27 µM in assay [6]. In addition, the TGI was 0.451 µM in assay [7]; 2.52 µM and 2.22 µM in assay [8].

Turning to `C[C@@H](Oc1ccc(C(=O)NS(=O)(=O)C(C)(C)C)cc1C(F)(F)F)c1ccc(Oc2ccccc2)cn1`, the GI50 in assay [1] was 4.85 µM; in assay [2] it was 1.25 µM; in assay [3], 2.28 µM; in assay [4], 6.56 µM; in assay [5], 1.68 µM; in assay [6], 3.18 µM. Moreover, the results for the GI50 in assay [7] and in assay [8] were 0.585 µM and 11.9 µM, respectively. Moreover, the TGI in assay [1] was 19.7 µM; in assay [2], 21 µM; in assay [3] it was 11.4 µM; in assay [4] it was 23.3 µM; in assay [5], 4.75 µM; in assay [6] it was 14.6 µM. Also, the TGI worked out at 2.09 µM in assay [7] and 32.7 µM in assay [8].

As for `Cc1ccc2c(c1)S(=O)(=O)c1ccc3ccccc3c1N2`, the TGI in assay [1], in assay [2], in assay [3], in assay [4], in assay [5] and in assay [6] was more than 100 µM in each case. Moreover, the TGI in assay [7] and in assay [8] was more than 100 µM each time.

Take `CCOc1cccc(-c2nc(N)nc(Nc3ccccc3SSc3ccccc3Nc3nc(N)nc(-c4cccc(OCC)c4)n3)n2)c1`: the GI50 is 5.87 µM in assay [1]; 3.33 µM in assay [2]; 3.53 µM in assay [3]; 6.12 µM in assay [4]; 6.8 µM in assay [5]; 4.56 µM in assay [6]. The GI50 in assay [7] is 8.1 µM; in assay [8], more than 100 µM. For the same compound, the TGI in assay [1], in assay [2], in assay [3], in assay [4], in assay [5] and in assay [6] was more than 100 µM throughout. Besides, the TGI in assay [7] and in assay [8] was more than 100 µM each time.

Turning to `COc1cc(/C=C/C(=O)N2CCN(C(=O)c3cc(OC)c(OC)c(OC)c3)CC2)ccc1OCCCOc1cc2c(cc1OC)C(=O)N1CCC[C@H]1C=N2`, the GI50 in assay [1] is 1.53 µM; in assay [2], 0.324 µM; in assay [3] it was 0.25 µM; in assay [4] it was 0.26 µM; in assay [5] it was 0.193 µM; in assay [6], 0.198 µM. In addition, the results for the GI50 in assay [7] and in assay [8] were 0.178 µM and 0.313 µM, respectively. The TGI was 27.5 µM in assay [1]; more than 100 µM in assay [2]; 0.699 µM in assay [3]; 0.703 µM in assay [4]; 0.415 µM in assay [5]; 0.446 µM in assay [6]. Further, the TGI turned out to be 0.343 µM in assay [7] and 2.04 µM in assay [8].

Regarding `Cn1c(/C=C/[N+](=O)[O-])cc2ccccc21`, the GI50 was 10.3 µM in assay [1]; 2.9 µM in assay [2]; 1.69 µM in assay [3]; 15.3 µM in assay [4]; 3.07 µM in assay [5]; 1.67 µM in assay [6]. Moreover, the GI50 in assay [7] is 1.69 µM; in assay [8], 2.11 µM. The TGI in assay [1] was 92.1 µM; in assay [2] it was more than 100 µM; in assay [3] it was 3.15 µM; in assay [4] it was 68.3 µM; in assay [5] it was 13.3 µM; in assay [6], 3.22 µM. Also, the TGI was 4.34 µM in assay [7] and 6.86 µM in assay [8].

In the case of `COc1ccc(-n2ccnc2-c2cc(OC)c(OC)c(OC)c2)cc1`, the GI50 is 11.3 µM in assay [1]; 3.14 µM in assay [2]; 4.59 µM in assay [3]; 7.27 µM in assay [4]; 1.91 µM in assay [5]; 2.37 µM in assay [6]. Further, the figures for the GI50 in assay [7] and in assay [8] were 0.303 µM and 6.64 µM, respectively. Moreover, the TGI in assay [1] is 85.7 µM; in assay [2] it was more than 100 µM; in assay [3], more than 100 µM; in assay [4] it was more than 100 µM; in assay [5], 11.1 µM; in assay [6], more than 100 µM. Further, the TGI in assay [7] was 1.32 µM; in assay [8], more than 100 µM.

Take `Cn1c(=O)c(Oc2ccc(F)cc2F)cc2cnc(NC3CCS(=O)(=O)CC3)nc21`: the GI50 in assay [1], in assay [2], in assay [3], in assay [4], in assay [5] and in assay [6] was more than 25 µM in each case. The GI50 in assay [7] and in assay [8] was more than 25 µM throughout. The TGI in assay [1], in assay [2], in assay [3], in assay [4], in assay [5] and in assay [6] was more than 25 µM each time. Further, the TGI in assay [7] and in assay [8] was more than 25 µM throughout.
